# Results from paper PMC8233208 (The Journal of Biological Chemistry, 2021).
# Test system: ZIKV (MR766)
# Assay: ZIKV total RNA replication by qRT-PCR in infected A549 cells
# Assay type: cell-based, ZIKV African-lineage MR766 strain
# Details: 10 μM, RNA replication and NS5 assays
substance,measurement,value
destruxin A [Compound 12],"antiviral (anti-ZIKV) activity, comparison among tested compounds",more potent activities
